Laboratory results published in patent US10183939B2, “Fused bicyclic (hetero)aromatic compounds useful for the treatment of cancers” (Redx Pharma PLC, priority 2014, dated 2019).
pIC50: −log10 of the molar value. “Also recorded” adds a separate entry of the source. Like-named read-outs stand apart in the source and are kept apart here.

Legend:
[1] = test system: ERK phosphorylation in A375 cells (B-RAF^V600E); test: A375 AlphaScreen SureFire pERK1/2 cellular assay; format: cell-based; conditions: Homo sapiens, A-375, 0.5 h, 30 minutes treatment
B-RAF^V600E kinase = B-RAF^V600E kinase (Homo sapiens (Human), UniProt P15056, V600E); test: LanthaScreen Eu kinase binding assay (B-RAF V600E); conditions: tracer 178 competition, 5 hours
Sequence of B-RAF^V600E kinase (P15056 whole entry V600E): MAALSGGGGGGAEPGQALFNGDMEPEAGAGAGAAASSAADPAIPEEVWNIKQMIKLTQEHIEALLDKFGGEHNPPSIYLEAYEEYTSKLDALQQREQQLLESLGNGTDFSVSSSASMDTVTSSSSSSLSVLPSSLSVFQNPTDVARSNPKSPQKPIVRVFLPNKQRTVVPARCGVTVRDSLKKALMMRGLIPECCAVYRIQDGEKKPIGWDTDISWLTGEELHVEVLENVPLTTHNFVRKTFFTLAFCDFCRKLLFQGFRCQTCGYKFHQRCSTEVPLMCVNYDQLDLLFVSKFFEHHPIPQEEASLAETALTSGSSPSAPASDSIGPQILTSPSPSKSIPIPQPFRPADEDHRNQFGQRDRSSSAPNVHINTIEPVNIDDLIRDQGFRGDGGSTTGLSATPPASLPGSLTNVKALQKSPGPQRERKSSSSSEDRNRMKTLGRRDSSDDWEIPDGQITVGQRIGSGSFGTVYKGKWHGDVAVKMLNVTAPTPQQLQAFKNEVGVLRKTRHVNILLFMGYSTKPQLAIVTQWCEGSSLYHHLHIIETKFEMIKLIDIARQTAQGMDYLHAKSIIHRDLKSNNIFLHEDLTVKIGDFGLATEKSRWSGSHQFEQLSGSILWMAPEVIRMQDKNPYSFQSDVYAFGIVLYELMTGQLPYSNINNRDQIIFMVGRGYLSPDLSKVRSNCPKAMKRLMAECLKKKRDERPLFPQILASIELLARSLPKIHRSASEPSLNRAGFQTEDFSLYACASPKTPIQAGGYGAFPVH

C-RAF Y340D/Y341D kinase = C-RAF Y340D/Y341D kinase (Homo sapiens (Human), UniProt P04049, Y340D/Y341D); test: LanthaScreen Eu kinase binding assay (C-RAF); conditions: tracer 178 competition, 5 hours
Sequence of C-RAF Y340D/Y341D kinase (P04049 306-648 Y340D/Y341D): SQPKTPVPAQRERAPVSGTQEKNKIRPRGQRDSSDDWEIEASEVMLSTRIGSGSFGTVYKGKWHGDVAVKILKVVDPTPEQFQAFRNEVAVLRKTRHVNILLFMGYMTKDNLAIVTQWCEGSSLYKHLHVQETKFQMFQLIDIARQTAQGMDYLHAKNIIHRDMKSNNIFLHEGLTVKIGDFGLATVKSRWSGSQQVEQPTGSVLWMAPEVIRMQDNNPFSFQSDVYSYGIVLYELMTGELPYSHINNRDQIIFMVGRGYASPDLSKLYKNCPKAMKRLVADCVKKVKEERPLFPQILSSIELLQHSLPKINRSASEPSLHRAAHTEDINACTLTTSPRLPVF

[2] = test system: C-RAF-mediated ERK activation in B-RAF^WT IPC-298 cells (NRAS^Q61L); test: IPC-298 AlphaScreen SureFire pERK1/2 cellular assay; format: cell-based, human; conditions: 1 hour treatment, relative to reference compound Dabrafenib
[3] = test system: ERK phosphorylation in WiDr cells (B-RAF^V600E); test: WiDr AlphaScreen SureFire pERK1/2 cellular assay; format: cell-based; conditions: Homo sapiens
[4] = read-out: A375 pERK inhibition category
[5] = IC50 category, read-out: BRAF^V600E binding affinity
[6] = read-out: BRAF^V600E binding affinity IC50
[7] = IC50 category, read-out: CRAF binding affinity
[8] = read-out: CRAF binding affinity IC50
[9] = read-out: A375 pERK inhibition IC50
[10] = 1 hr treatment, read-out: WiDr pERK inhibition category 1 hr
[11] = 24 hrs treatment, read-out: WiDr pERK inhibition category 24 hrs

SMILES | pIC50 [1, 4] | pIC50 (B-RAF^V600E kinase; [5]) | pIC50 (C-RAF Y340D/Y341D kinase; [7]) | paradoxical activation of MAPK pathway (ERK phosphorylation) [2] | also measured
O=C1CCc2c(Oc3ccc4c(c3)CC(c3nc(-c5cccs5)c[nH]3)CO4)ccnc2N1 (stereo not drawn) [Example 7, 5-[3-[4-(2-thienyl)-1H-imidazol-2-yl]chroman-6-yl]oxy-3,4-dihydro-1H-1,8-naphthyridin-2-one] | > 7.15 | > 8.40 | > 8.40 | reduced paradoxical activity | pIC50 (B-RAF^V600E kinase; [6]): 8.96; pIC50 (C-RAF Y340D/Y341D kinase; [8]): 9.30
O=C1CCc2c(Oc3ccc4c(c3)CC(c3ncc(-c5ccccc5Cl)[nH]3)CO4)ccnc2N1 (stereo not drawn) [Example 8, 5-[3-[5-(2-chlorophenyl)-1H-imidazol-2-yl]chroman-6-yl]oxy-3,4-dihydro-1H-1,8-naphthyridin-2-one] |  | > 8.40 | > 8.40 |  | 
O=C1CCc2c(Oc3ccc4c(c3)CC(c3nc(-c5ccsc5)c[nH]3)CO4)ccnc2N1 (stereo not drawn) [Example 6, 5-[3-[4-(3-thienyl)-1H-imidazol-2-yl]chroman-6-yl]oxy-3,4-dihydro-1H-1,8-naphthyridin-2-one] | > 7.15 | > 8.40 | > 8.40 | reduced paradoxical activity | pIC50 [1, 9]: 7.63; pIC50 (B-RAF^V600E kinase; [6]): 9.00; pIC50 (C-RAF Y340D/Y341D kinase; [8]): 9.40
O=C1CCc2c(Oc3ccc4c(c3)CC(c3nc(-c5ccncc5)c[nH]3)CO4)ccnc2N1 (stereo not drawn) [Example 4, 5-[3-[4-(4-pyridyl)-1H-imidazol-2-yl]chroman-6-yl]oxy-3,4-dihydro-1H-1,8-naphthyridin-2-one] | < 6.52 | > 8.40 | > 8.40 | reduced paradoxical activity | 
O=C1CCc2c(Oc3ccc4c(c3)CC(c3ncc(-c5cccnc5)[nH]3)CO4)ccnc2N1 (stereo not drawn) [Example 11, 5-[3-[5-(3-pyridyl)-1H-imidazol-2-yl]chroman-6-yl]oxy-3,4-dihydro-1H-1,8-naphthyridin-2-one] |  | > 8.40 | > 8.40 |  | 
O=C1CCc2c(Oc3ccc4c(c3)CC(c3nc(-c5coc6ccccc56)c[nH]3)CO4)ccnc2N1 (stereo not drawn) [Example 10, 5-[3-[4-(benzofuran-3-yl)-1H-imidazol-2-yl]chroman-6-yl]oxy-3,4-dihydro-1H-1,8-naphthyridin-2-one] |  | > 8.40 | > 8.40 |  | 
O=C1CCc2c(Oc3ccc4c(c3)CC(c3ncc(-c5cccc(Cl)c5)[nH]3)CO4)ccnc2N1 (stereo not drawn) [Example 9, 5-[3-[5-(3-chlorophenyl)-1H-imidazol-2-yl]chroman-6-yl]oxy-3,4-dihydro-1H-1,8-naphthyridin-2-one] |  | > 8.40 | > 8.40 |  | 
O=C1CCc2c(Oc3ccc4c(c3)CC(c3nc5cccc(Cl)c5[nH]3)CO4)ccnc2N1 (stereo not drawn) [Example 2, 5-[3-(7-chloro-1H-benzimidazol-2-yl)chroman-6-yl]oxy-3,4-dihydro-1H-1,8-naphthyridin-2-one] | 6.52 to 7.15 | 7.00 to 8.40 | 7.00 to 8.40 |  | 
O=C1CCc2c(Oc3ccc4c(c3)CC(c3nc5ccccc5[nH]3)CO4)ccnc2N1 (stereo not drawn) [Example 1, 5-[3-(1H-benzimidazol-2-yl)chroman-6-yl]oxy-3,4-dihydro-1H-1,8-naphthyridin-2-one] |  | > 8.40 | > 8.40 |  | 
O=C1CCc2c(Oc3ccc4c(c3)CC(c3nc(-c5ccccc5)c[nH]3)CO4)ccnc2N1 (stereo not drawn) [Example 3, 5-[3-(4-phenyl-1H-imidazol-2-yl)chroman-6-yl]oxy-3,4-dihydro-1H-1,8-naphthyridin-2-one] |  |  |  | reduced paradoxical activation of MAPK pathway in comparison to Dabrafenib; also recorded: reduced paradoxical activity | 
CC(C)(C)c1c[nH]c(C2COc3ccc(Oc4ccnc5c4CCC(=O)N5)cc3C2)n1 (stereo not drawn) [Example 5, 5-[3-(4-tert-butyl-1H-imidazol-2-yl)chroman-6-yl]oxy-3,4-dihydro-1H-1,8-naphthyridin-2-one] |  | 7.00 to 8.40 | > 8.40 |  | 

Now from value to compound, other results behind:

pIC50 [1, 4] | pIC50 (B-RAF^V600E kinase; [5]) | pIC50 (C-RAF Y340D/Y341D kinase; [7]) | SMILES | paradoxical activation of MAPK pathway (ERK phosphorylation) [2] | also measured
< 6.52 | 7.00 to 8.40 | > 8.40 | O=C1CCc2c(Oc3ccc4c(c3)C=C(c3nc(-c5ccccc5)c[nH]3)CO4)ccnc2N1 [Example 16, 5-[[3-(4-phenyl-1H-imidazol-2-yl)-2H-chromen-6-yl]oxy]-3,4-dihydro-1H-1,8-naphthyridin-2-one] |  | 
< 6.52 | > 8.40 | > 8.40 | O=C1CCc2c(Oc3ccc4c(c3)CC(c3cc(-c5ccccc5)[nH]n3)CO4)ccnc2N1 (stereo not drawn) [Example 18, 5-[3-(5-phenyl-1H-pyrazol-3-yl)chroman-6-yl]oxy-3,4-dihydro-1H-1,8-naphthyridin-2-one] | reduced paradoxical activity | 
 | 7.00 to 8.40 | 7.00 to 8.40 | Cc1cc(Oc2ccc3c(c2)CC(c2ncc(-c4ccccc4)[nH]2)CO3)ccn1 (stereo not drawn) [Example 21, 2-Methyl-4-[3-(5-phenyl-1H-imidazol-2-yl)chroman-6-yl]oxy-pyridine] |  | 
6.52 to 7.15 | > 8.40 | > 8.40 | O=C1CCc2c(Oc3ccc4c(c3)O[C@H](c3nc(-c5ccccc5)c[nH]3)CO4)ccnc2N1 [Example 20, 5-[[(3R)-3-(4-phenyl-1H-imidazol-2-yl)-2,3-dihydro-1,4-benzodioxin-6-yl]oxy]-3,4-dihydro-1H-1,8-naphthyridin-2-one] | reduced paradoxical activity | pIC50 [1, 9]: 6.55; pIC50 [3, 10]: 6.52 to 7.15; pIC50 [3, 11]: < 6.52
 | < 7.00 | 7.00 to 8.40 | CS(=O)(=O)c1ccc(-c2cnc(C3COc4ccc(Oc5ccnc6c5CCC(=O)N6)cc4C3)[nH]2)cc1 (stereo not drawn) [Example 12, 5-[3-[5-(4-methylsulfonylphenyl)-1H-imidazol-2-yl]chroman-6-yl]oxy-3,4-dihydro-1H-1,8-naphthyridin-2-one] |  | 
 | 7.00 to 8.40 | 7.00 to 8.40 | O=C1CCc2c(Oc3ccc4c(c3)CC(c3nc(-c5ccccc5)no3)CO4)ccnc2N1 (stereo not drawn) [Example 17, 5-[3-(3-phenyl-1,2,4-oxadiazol-5-yl)chroman-6-yl]oxy-3,4-dihydro-1H-1,8-naphthyridin-2-one] |  | 
 | > 8.40 | > 8.40 | O=C1CCc2c(Oc3ccc4c(c3)CC(c3ncc(-c5ccc(F)cc5)[nH]3)CO4)ccnc2N1 (stereo not drawn) [Example 13, 5-[3-[5-(4-fluorophenyl)-1H-imidazol-2-yl]chroman-6-yl]oxy-3,4-dihydro-1H-1,8-naphthyridin-2-one] |  | 
6.52 to 7.15 | > 8.40 | > 8.40 | O=C1CCc2c(Oc3ccc4c(c3)O[C@@H](c3nc(-c5ccccc5)c[nH]3)CO4)ccnc2N1 [Example 19, 5-[[(3S)-3-(4-phenyl-1H-imidazol-2-yl)-2,3-dihydro-1,4-benzodioxin-6-yl]oxy]-3,4-dihydro-1H-1,8-naphthyridin-2-one] | reduced paradoxical activity | pIC50 [1, 9]: 6.81; pIC50 [3, 10]: 6.52 to 7.15; pIC50 [3, 11]: < 6.52
 | > 8.40 | > 8.40 | O=C1CCc2c(Oc3ccc4c(c3)CC(c3ncc(-c5ccc6c(c5)OCO6)[nH]3)CO4)ccnc2N1 (stereo not drawn) [Example 14, 5-[3-[5-(1,3-benzodioxol-5-yl)-1H-imidazol-2-yl]chroman-6-yl]oxy-3,4-dihydro-1H-1,8-naphthyridin-2-one] |  | 
 | 7.00 to 8.40 | > 8.40 | O=C1CCc2c(Oc3ccc4c(c3)CC(c3ncc(-c5ccc6c(c5)OCCO6)[nH]3)CO4)ccnc2N1 (stereo not drawn) [Example 15, 5-[3-[5-(2,3-dihydro-1,4-benzodioxin-6-yl)-1H-imidazol-2-yl]chroman-6-yl]oxy-3,4-dihydro-1H-1,8-naphthyridin-2-one] |  | 
